In experiment [1] the test system is MSSA. As to the kind of experiment: Checkerboard assay (FIC index).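 Further: each agent diluted from 0.03 to 4 times its MIC.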 The class given is cell-based, Staphylococcus aureus. The method, then: (§1) Checkerboard assays were carried out as described by Bonapace et al.
(§2) Diagnostic Microbiology and Infectious Diseases 2002; 44:363-366. In brief, checkerboard assays were performed in 96 well microtitre trays using an 8-by-8 well configuration. […] 96-well custom designed microtitre plates contained 100 ul/well of cation adjusted Mueller-Hinton broth (eg. for Enterobacteriaceae) with or without lysed horse blood (2-5% V/V) [eg. for S. pneumoniae] and were inoculated to achieve a final concentration of approximately 5×10^5 CFU/ml and incubated in ambient air for 24 hours prior to reading. Colony counts were performed periodically to confirm inocula. Quality control was performed every two weeks using a variety of ATCC QC organisms including; S. pneumoniae 49619, S. aureus 29213, E. faecalis 29212, E. coli 25922 and P. aeruginosa 27853. […] All peptides were assessed for synergy with β-lactams and vancomycin. For all antimicrobials as well as the peptides, CLSI criteria were used.
(§3) The fractional inhibitory concentration index (FIC index) was used to interpret synergy, antagonism or additivity/indifference. FIC index=FIC of drug A+FIC of drug B where:
(§4) The FIC of drug A and drug B was calculated as follows, FIC drug A=MIC of drug A in combination/MIC of drug A alone and FIC of drug B=MIC of drug B in combination/MIC of drug B alone. Synergy was defined as FIC index ≦0.5, additivity/indifference defined as a FIC between 0.5 and 4 and antagonism defined as an FIC index >4.
(§5) The checkerboard assays were carried out as described by Eliopoulos and Moellering (Chapter 9) in Antibiotic in Laboratory Medicine, Lorian Ed. 1996 as well as Bonapace et al. Diagnostic Microbiology and Infectious Diseases 2002; 44:363-366 and Bonapace et al. Diagnostic Microbiology and Infectious Diseases 2000; 38:43-50. In brief, checkerboard assays were performed in 96 well microtitre trays using an 8-by-8 well configuration. […] 96-well custom designed microtitre plates contained 100 ul/well of cation adjusted Mueller-Hinton broth (eg. for Enterobacteriaceae) with or without lysed horse blood (2-5% V/V) [eg. for S. pneumoniae] and were inoculated to achieve a final concentration of approximately 5×10^5 CFU/ml and incubated in ambient air for 24 hours prior to reading. Colony counts were performed periodically to confirm inocula. Quality control was performed every two weeks using a variety of ATCC QC organisms including; S. pneumoniae 49619, S. aureus 29213, E. faecalis 29212, E. coli 25922 and P. aeruginosa 27853. For all antimicrobials as well as PEP35, CLSI criteria was used.
(§6) The FIC of drug A and drug B is calculated as follows, FIC drug A=MIC of drug A in combination/MIC of drug A alone and FIC of drug B=MIC of drug B in combination/MIC of drug B alone. Synergy is defined as FIC index ≦0.5, additivity/indifference FIC >0.5-4 and antagonism FIC index >4.
(§7) Antimicrobials used included PEP35, cefazolin, ceftriaxone, vancomycin, linezolid, tigecycline and daptomycin versus Gram-positive cocci and PEP35, gentamicin, levofloxacin, piperacillin/tazobactam, meropenem and colistin (Polymyxin E) versus Gram-negative bacilli. These agents were obtained as laboratory grade powders from their respective manufacturers. Stock solutions were prepared and dilutions made as described by the Clinical Laboratory Standards Institute (2005 CLSI).
(§8) Organisms included Gram-positive cocci (2 strains of each): Methicillin-susceptible Staphylococcus aureus (MSSA), community-associated (CA) and healthcare-associated (HA) methicillin-resistant Staphylococcus aureus (MRSA), vancomycin-intermediate Staphylococcus aureus (VISA), vancomycin-resistant Staphylococcus aureus (VRSA), methicillin-resistant Staphylococcus epidermidis (MRSE), Streptococcus pyogenes, Streptococcus agalactiae, Streptococcus pneumoniae, Enterococcus faecalis, Enterococcus faecium and vancomycin-resistant enterococcus (VRE). […]

Experiment [2] has as its system VISA. As to the kind of experiment: Checkerboard assay (FIC index).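 Further: each agent diluted from 0.03 to 4 times its MIC.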 The class given is cell-based, Staphylococcus aureus. The method, then:
as §1, §2, §3, §4, §5, §6, §7, §8

In experiment [3] the test system is MRSE. As to the kind of experiment: Checkerboard assay (FIC index).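 Further: each agent diluted from 0.03 to 4 times its MIC.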 The class given is cell-based, Staphylococcus epidermidis. The note with it: antibiotic combined with PEP35. Here is the method:
as §5, §3, §6, §7
Organisms included Gram-positive cocci (2 strains of each): Methicillin-susceptible Staphylococcus aureus (MSSA), community-associated (CA) and healthcare-associated (HA) methicillin-resistant Staphylococcus aureus (MRSA), vancomycin-intermediate Staphylococcus aureus (VISA), vancomycin-resistant Staphylococcus aureus (VRSA), methicillin-resistant Staphylococcus epidermidis (MRSE), Streptococcus pyogenes, Streptococcus agalactiae, Streptococcus pneumoniae, Enterococcus faecalis, Enterococcus faecium and vancomycin-resistant enterococcus (VRE). Gram-negative bacilli tested (2 strains of each) included: E. coli, Pseudomonas aeruginosa, Klebsiella pneumoniae, K. oxytoca, Enterobacter cloacae, P. mirabilis and Stenotrophomonas maltophilia. MIC testing, following two subcultures from frozen stock were determined by the CLSI 2005 approved broth microdilution method.

Experiment [4] concerns VISA. The experiment is described as follows: MIC (CLSI broth dilution), agent alone. It is filed as cell-based, Staphylococcus aureus. On the set-up: unit: µg/mL. A general note: In broth dilution the organism is exposed to a series of concentrations in liquid medium.
Where [5] appears, read: antibiotic combined with PEP35, MSSA 79333.
Where [6] appears, read: antibiotic combined with PEP35, MSSA 83424.
Where [7] appears, read: antibiotic combined with PEP35, VISA 92.
The mark [8] stands for this setting: antibiotic combined with PEP35, VISA 95.
Where [9] appears, read: antibiotic combined with PEP35, VISA 96.
The mark [10] stands for this setting: β-lactam combined with HybPEP35-1, MSSA 79333.
Setting [11] is: β-lactam combined with PEP-52, MSSA 79333.
Where [12] appears, read: β-lactam combined with Scrambled PEP35, MSSA 79333.
[13] abbreviates: β-lactam combined with HybPEP35-1, VISA 96.
[14] abbreviates: β-lactam combined with PEP-52, VISA 96.
The mark [15] stands for this setting: β-lactam combined with Scrambled PEP35, VISA 96.

SMILES strings stand for the structures. Several values for one entry are separate records, joined by “and”; a condition that tells them apart may be missing. Equal entries are not always repeated. Marks after values point to notes of the source that are not given here.

For the compound `CC(=O)NC[C@H]1CN(c2ccc(N3CCOCC3)c(F)c2)C(=O)O1` [Linezolid, linezolid], the “Avg ΣFIC (range)” value in experiment [1] (setting [5]) was 1.05 (0.75-1.25); in experiment [1] (setting [6]), 0.74 (0.515-1.06); in experiment [2] (setting [7]), 0.99 (0.75-1.12); in experiment [2] (setting [8]) it was 0.98 (0.62-1.25); in experiment [2] (setting [9]) it was 0.77 (0.56-1.06); in experiment [3] (MRSE 79617), 1.10 (0.56-1.5). For the same compound, in experiment [3] (MRSE 83100), the “Avg ΣFIC (range)” value is reported as 0.73 (0.515-1.12).

With `CO/N=C(\C(=O)N[C@@H]1C(=O)N2C(C(=O)O)=C(CSc3nc(=O)c(=O)[nH]n3C)CS[C@H]12)c1csc(N)n1` [Ceftriaxone], the “Avg ΣFIC (range)” value in experiment [1] (setting [6]) was 0.80 (0.5-1.12); in experiment [1] (setting [10]), 0.98; in experiment [1] (setting [11]) it was >1*; in experiment [1] (setting [12]) it was 0.98; in experiment [2] (setting [7]), 0.52 (0.28-1.06); in experiment [2] (setting [8]), 0.28 (0.09-0.56) and 0.37 (0.18-0.56). Also, the “Avg ΣFIC (range)” value in experiment [2] (setting [13]) is reported as 0.26; in experiment [2] (setting [14]), >1*; in experiment [2] (setting [15]), 0.26; in experiment [3] (MRSE 79617) it was 0.88 (0.53-1.25); in experiment [3] (MRSE 83100), 1.05 (0.75-1.25). Moreover, the MIC in experiment [4] (VISA 92) is 1024/1024; in experiment [4] (VISA 92, in µg/mL) it was 1024; in experiment [4] (VISA 95, in µg/mL), 512; in experiment [4] (VISA 95, listed as CEFTRIAXONE, in µg/mL), 1024 and 512; in experiment [4] (VISA 96), 256 and 128/128 and 256/256.

Regarding `CCCCCCCCCC(=O)N[C@@H](Cc1c[nH]c2ccccc12)C(=O)N[C@H](CC(N)=O)C(=O)N[C@@H](CC(=O)O)C(=O)N[C@@H]1C(=O)NCC(=O)N[C@@H](CCCN)C(=O)N[C@@H](CC(=O)O)C(=O)N[C@H](C)C(=O)N[C@@H](CC(=O)O)C(=O)NCC(=O)N[C@H](CO)C(=O)N[C@@H]([C@H](C)CC(=O)O)C(=O)N[C@@H](CC(=O)c2ccccc2N)C(=O)O[C@@H]1C` [Daptomycin, daptomycin], the “Avg ΣFIC (range)” value in experiment [1] (setting [5]) was 1.19 (1.03-1.5); in experiment [1] (setting [6]) it was 1.58 (1.015-2.5); in experiment [2] (setting [7]), 1.54 (1.015-2.5); in experiment [2] (setting [8]), 1.23 (1.06-1.5); in experiment [2] (setting [9]), 1.21 (1.03-1.5); in experiment [3] (MRSE 79617), 1.19 (1.03-1.5). For the same compound, in experiment [3] (MRSE 83100), the “Avg ΣFIC (range)” value is recorded as 1.1 (1.0-1.25).

In the case of `Cc1nnc(SCC2=C(C(=O)O)N3C(=O)[C@@H](NC(=O)Cn4cnnn4)[C@H]3SC2)s1` [Cefazolin], the “Avg ΣFIC (range)” value in experiment [1] (setting [6]) was 1.02 (0.75-1.25); in experiment [1] (setting [10]) it was 0.57; in experiment [1] (setting [11]), >1*; in experiment [1] (setting [12]), 0.57; in experiment [2] (setting [7]), 0.33 (0.18-0.53) and 0.45 (0.18-1.015); in experiment [2] (setting [8]), 0.49 (0.31-0.62) and 0.37 (0.18-0.56). Besides, the “Avg ΣFIC (range)” value is given as 0.30 in experiment [2] (setting [13]); >1* in experiment [2] (setting [14]); 0.30 in experiment [2] (setting [15]); 0.88 (0.53-1.25) in experiment [3] (MRSE 79617); 0.52 (0.37-0.62) in experiment [3] (MRSE 83100). Moreover, the MIC in experiment [4] (VISA 92) was 128/128; in experiment [4] (VISA 92, in µg/mL), 128; in experiment [4] (VISA 95, in µg/mL), 128 and 64; in experiment [4] (VISA 95, listed as CEFAZOLIN, in µg/mL), 128; in experiment [4] (VISA 96), 32/32; in experiment [4] (VISA 96, in µg/mL), 64 and 32.

Regarding `C[C@@H](O)[C@H]1C(=O)N2C(C(=O)O)=C(S[C@@H]3CN[C@H](C(=O)N(C)C)C3)[C@H](C)[C@H]12` [Meropenem], the “Avg ΣFIC (range)” value in experiment [1] (setting [5]) is on record as 0.52; in experiment [1] (setting [10]), 1.11; in experiment [1] (setting [11]), >1*; in experiment [1] (setting [12]) it was 1.11; in experiment [2] (setting [9]), 0.41; in experiment [2] (setting [13]), 0.45. The “Avg ΣFIC (range)” value was >1* in experiment [2] (setting [14]) and 0.45 in experiment [2] (setting [15]). Besides, the MIC was 16 in experiment [4] (VISA 92, in µg/mL); 16 in experiment [4] (VISA 95, in µg/mL); 8 and 8/8 in experiment [4] (VISA 96).

Take `CN[C@H](CC(C)C)C(=O)N[C@H]1C(=O)N[C@@H](CC(N)=O)C(=O)N[C@H]2C(=O)N[C@H]3C(=O)N[C@H](C(=O)N[C@H](C(=O)O)c4cc(O)cc(O)c4-c4cc3ccc4O)[C@H](O)c3ccc(c(Cl)c3)Oc3cc2cc(c3O[C@@H]2O[C@H](CO)[C@@H](O)[C@H](O)[C@H]2O[C@H]2C[C@](C)(N)[C@H](O)[C@H](C)O2)Oc2ccc(cc2Cl)[C@H]1O` [Vancomycin]: the “Avg ΣFIC (range)” value in experiment [1] (setting [5]) is 1.11 (1.0-1.25); in experiment [1] (setting [6]) it was 1.19 (1.03-1.5); in experiment [2] (setting [7]) it was 1.1 (1.0-1.25); in experiment [2] (setting [8]), 1.1 (1.03-1.25); in experiment [2] (setting [9]) it was 0.88 (0.53-0.125); in experiment [3] (MRSE 79617) it was 0.99 (0.62-1.25). In addition, in experiment [3] (MRSE 83100), the “Avg ΣFIC (range)” value was 0.60 (0.31.12) rpt. For the same compound, the MIC was 4/4 in experiment [4] (VISA 92); 2 and 4 in experiment [4] (VISA 95); 4/4 in experiment [4] (VISA 96).

As for `CN(C)c1cc(NC(=O)CNC(C)(C)C)c(O)c2c1C[C@H]1C[C@H]3[C@H](N(C)C)C(O)=C(C(N)=O)C(=O)[C@@]3(O)C(O)=C1C2=O` [Tigecycline, tigecycline], the “Avg ΣFIC (range)” value is 0.99 (0.62-1.5) in experiment [1] (setting [5]); 0.85 (0.5-1.12) in experiment [1] (setting [6]); 0.56 (0.31-1.06) in experiment [2] (setting [7]); 0.46 (0.37-0.56) and 0.43 (0.31-0.56) in experiment [2] (setting [8]); 0.91 (0.62-1.12) in experiment [2] (setting [9]); 1.19 (1.03-1.5) in experiment [3] (MRSE 79617). Moreover, in experiment [3] (MRSE 83100), the “Avg ΣFIC (range)” value is 1.21 (1.03-1.5).
